Assay results as given in patent US20020137929A1, “1 - (3-heterocyclylphenyl) isothiourea, -isourea, -guanidine and -amidine herbicidal agents” (Intellectual Property Department, BASF Aktiengesellschaft, priority 1998, published 2002).

How the values were obtained:
[1] = test system: ORYSAT (Rice, Tebonnet); assay: Preemergence herbicidal evaluation; assay type: in vivo, Oryza sativa, (L.) Tebonnet; details: rated 4-5 weeks after treatment
Method in brief: (§1)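 Scores (0–9) reflect visual comparison with control plants for stand, vigor, malformation, size and chlorosis. Compound was applied to the soil after sowing, before emergence, as an aqueous acetone spray (about 0.0156–0.500 kg/ha), and cups were kept in a greenhouse for 4–5 weeks.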

[2] = test system: ORYSAT (Rice, Tebonnet); assay: Rice tolerance to post-transplant applications, flooded paddy conditions (Table III); assay type: in vivo, Oryza sativa, (L.) Tebonnet; details: for Herbicidal rating ORYSAT (rice tolerance): post-transplant rice, flooded paddy, rated 3-4 weeks after treatment
Method in brief: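 Two ten-day-old Tebonnet seedlings transplanted into flooded silt loam (water 1.5 to 3 cm above soil); three days later the water surface was treated with compound in aqueous/acetone 50/50 at about 0.0313 to 0.500 kg/ha. Visual 0-9 injury rating versus control after three to four weeks in greenhouse.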

[3] = test system: ECHORC (Watergrass (Calif.)); assay: Preemergence weed control under flooded paddy conditions; assay type: in vivo, Echinochloa oryzoides; details: rated 3-4 weeks after treatment
Method in brief: (§2)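 Flooded-pot preemergence screen with silt loam and seeds in the upper 0.5 cm. Dose about 0.0313 to 0.500 kg/ha, delivered into flood water; visual 0-9 score after 3 to 4 weeks.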

[4] = test system: ECHCG (Barnyardgrass); assay: Postemergence herbicidal evaluation; assay type: in vivo, Echinochloa crus-galli; details: for ECHCG herbicidal rating: postemergence
Method in brief: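 Visual 0–9 rating versus control (stand, vigor, malformation, size, chlorosis, overall appearance), taken four to five weeks post-spray. Two-week-old seedlings received roughly 0.0156–0.500 kg/ha active in acetone/water (50/50) with 0.5% TWEEN 20 via nozzle at 40 psi.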

[5] = test system: CHEAL (Lambsquarters, Common); assay: Preemergence herbicidal evaluation; assay type: in vivo, Chenopodium album; details: rated 4-5 weeks after treatment
Method in brief: as §1

[6] = test system: ORYSAT (Rice, Tebonnet); assay: Rice tolerance to post-transplant applications, flooded paddy conditions (Table IV); assay type: in vivo, Oryza sativa, (L.) Tebonnet
Text: Results of herbicide evaluation are expressed on a rating scale (0-9). The scale is based upon a visual observation of plant stand, vigor, malformation, size, chlorosis and overall plant appearance as compared with a control.
Plastic containers containing weeds which are 3 to 5 cm tall and rice seedlings at the 1.5 to 2.5 leaf stage are flooded with water. The water is maintained at 1.5 to 3 cm above the soil surface for the duration of the experiment. Test compounds are applied as aqueous/ acetone mixtures 50/50 v/v directly into the flood water to provide the equivalent of about 0.0313 to 0.500 kg/ha of active ingredient. The treated containers are placed on greenhouse benches and cared for in accordance with conventional greenhouse procedures. Three to four weeks after treatment, the test is terminated and each container is examined and herbicidal effect rated according to the rating system provided in Example 37. The compounds evaluated are reported by compound number given in Example 37.

[7] = test system: MOOVA (Monochoria); assay: Postemergence weed control under flooded paddy conditions; assay type: in vivo, Monochoria vaginalis; details: postemergence weeds
Method in brief: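 Weeds 3 to 5 cm tall and rice seedlings at the 1.5 to 2.5 leaf stage were flooded, with water held 1.5 to 3 cm above the soil. Compounds in 50/50 v/v aqueous/acetone went into the flood water at about 0.0313 to 0.500 kg/ha. Visual 0-9 ratings versus control were made 3 to 4 weeks later.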

[8] = test system: CYPSE (Flatsedge); assay: Preemergence weed control under flooded paddy conditions; assay type: in vivo, Cyperus serotinus; details: rated 3-4 weeks after treatment
Method in brief: as §2

CCOC(=O)/C=C1/S/C(=N/c2cc(-n3c(=O)cc(C(F)(F)F)n(C)c3=O)c(F)cc2Cl)N(CC(=O)OCC)C1=O [Compound 14]
ORYSAT preemergence herbicidal rating ([1]; rate 0.0313 kg/ha): 0.0 | ORYSAT preemergence herbicidal rating ([1]; rate 0.0625 kg/ha): 0.0 | ORYSAT preemergence herbicidal rating ([1]; rate 0.1250 kg/ha): 0.5 | ORYSAT preemergence herbicidal rating ([1]; rate 0.2500 kg/ha): 1.0 | ORYSAT preemergence herbicidal rating ([1]; rate 0.5000 kg/ha): 3.0 | Herbicidal rating ORYSAT (rice tolerance) ([2]; 0.0313 kg/ha): 0.0 | Herbicidal rating ORYSAT (rice tolerance) ([2]; 0.0625 kg/ha): 0.5 | Herbicidal rating ORYSAT (rice tolerance) ([2]; 0.1250 kg/ha): 1.0 | Herbicidal rating ORYSAT (rice tolerance) ([2]; 0.2500 kg/ha): 0.0 | Herbicidal rating ECHORC ([3]; 0.0313 kg/ha): 1.5 | Herbicidal rating ECHORC ([3]; 0.0625 kg/ha): 4.5 | Herbicidal rating ECHORC ([3]; 0.1250 kg/ha): 7.5 | Herbicidal rating ECHORC ([3]; 0.2500 kg/ha): 9.0 | ECHCG herbicidal rating ([4]; rate 0.0156 kg/ha): 9.0 | ECHCG herbicidal rating ([4]; rate 0.0313 kg/ha): 9.0 | ECHCG herbicidal rating ([4]; rate 0.0625 kg/ha): 9.0 | ECHCG herbicidal rating ([4]; rate 0.1250 kg/ha): 9.0 | CHEAL preemergence herbicidal rating ([5]; rate 0.0313 kg/ha): 9.0 | CHEAL preemergence herbicidal rating ([5]; rate 0.0625 kg/ha): 9.0 | CHEAL preemergence herbicidal rating ([5]; rate 0.1250 kg/ha): 9.0 | CHEAL preemergence herbicidal rating ([5]; rate 0.2500 kg/ha): 9.0 | CHEAL preemergence herbicidal rating ([5]; rate 0.5000 kg/ha): 9.0 | Herbicidal rating ORYSAT (rice tolerance) ([6]; rate 0.0313 kg/ha, flooded paddy, post-transplant rice, 3-4 weeks after treatment): 0.0 | Herbicidal rating ORYSAT (rice tolerance) ([6]; rate 0.0625 kg/ha, flooded paddy, post-transplant rice, 3-4 weeks after treatment): 0.3 | Herbicidal rating ORYSAT (rice tolerance) ([6]; rate 0.1250 kg/ha, flooded paddy, post-transplant rice, 3-4 weeks after treatment): 0.5 | Herbicidal rating ORYSAT (rice tolerance) ([6]; rate 0.2500 kg/ha, flooded paddy, post-transplant rice, 3-4 weeks after treatment): 0.0 | Herbicidal rating MOOVA ([7]; rate 0.0313 kg/ha, 3-4 weeks after treatment): 6.8 | Herbicidal rating MOOVA ([7]; rate 0.0625 kg/ha, 3-4 weeks after treatment): 6.8 | Herbicidal rating MOOVA ([7]; rate 0.1250 kg/ha, 3-4 weeks after treatment): 6.8 | Herbicidal rating MOOVA ([7]; rate 0.2500 kg/ha, 3-4 weeks after treatment): 4.5 | Herbicidal rating CYPSE ([8]; 0.0313 kg/ha): 0.0 | Herbicidal rating CYPSE ([8]; 0.0625 kg/ha): 0.0 | Herbicidal rating CYPSE ([8]; 0.1250 kg/ha): 3.0 | Herbicidal rating CYPSE ([8]; 0.2500 kg/ha): 0.0

CN1C(=O)C(CC(=O)O)SC1=Nc1cc(-n2c(=O)cc(C(F)(F)F)n(C)c2=O)c(F)cc1Cl (stereo not drawn) [Compound 63, 2-{{2-Chloro-5-[3,6-dihydro-3-methyl-2,6-dioxo-4-(trifluoromethyl)-1(2H)-pyrimidinyl]-4-fluoro-phenyl}imino}-3-methyl-4-oxo-5-thiazolidineacetic acid]
Preemergence herbicidal rating ORYSAT ([1]; rate 0.0156 kg/ha): 0.0 | Preemergence herbicidal rating ORYSAT ([1]; rate 0.0313 kg/ha): 0.0 | Preemergence herbicidal rating ORYSAT ([1]; rate 0.0625 kg/ha): 5.0 | Preemergence herbicidal rating ORYSAT ([1]; rate 0.1250 kg/ha): 7.0 | Preemergence herbicidal rating ORYSAT ([1]; rate 0.2500 kg/ha): 7.0 | ORYSAT herbicidal effect rating (rice tolerance) ([2]; in vivo): 3.0 | ECHORC herbicidal effect rating ([3]; 0.0313 kg/ha): 0.0 | ECHORC herbicidal effect rating ([3]; 0.0625 kg/ha): 0.0 | ECHORC herbicidal effect rating ([3]; 0.1250 kg/ha): 5.0 | ECHORC herbicidal effect rating ([3]; 0.2500 kg/ha): 5.0 | Postemergence herbicidal rating ECHCG ([4]; Rate 0.0158 kg/ha): 2.0 | Postemergence herbicidal rating ECHCG ([4]; Rate 0.0315 kg/ha): 2.0 | Postemergence herbicidal rating ECHCG ([4]; Rate 0.0630 kg/ha): 6.0 | Preemergence herbicidal rating CHEAL ([5]; rate 0.0313 kg/ha): 7.0 | Preemergence herbicidal rating CHEAL ([5]; rate 0.0625 kg/ha): 9.0 | Preemergence herbicidal rating CHEAL ([5]; rate 0.1250 kg/ha): 9.0 | Preemergence herbicidal rating CHEAL ([5]; rate 0.2500 kg/ha): 9.0 | Herbicidal rating ORYSAT (rice tolerance) ([6]; in vivo): 3.0 | Herbicidal rating MOOVA ([7]; Rate 0.0313 kg/ha, rated 3 to 4 weeks after treatment): 9.0 | Herbicidal rating MOOVA ([7]; Rate 0.0625 kg/ha, rated 3 to 4 weeks after treatment): 9.0 | Herbicidal rating MOOVA ([7]; Rate 0.1250 kg/ha, rated 3 to 4 weeks after treatment): 9.0 | Herbicidal rating MOOVA ([7]; Rate 0.2500 kg/ha, rated 3 to 4 weeks after treatment): 9.0 | CYPSE herbicidal effect rating ([8]; 0.0313 kg/ha): 0.0 | CYPSE herbicidal effect rating ([8]; 0.0625 kg/ha): 0.0 | CYPSE herbicidal effect rating ([8]; 0.1250 kg/ha): 0.0 | CYPSE herbicidal effect rating ([8]; 0.2500 kg/ha): 0.0
